{"source": "patent US20110294138A1", "about": "“METHODS FOR SIMULTANEOUSLY MEASURING THE IN VIVO METABOLISM OF TWO OR MORE ISOFORMS OF A BIOMOLECULE” (THE WASHINGTON UNIVERSITY, priority 2008, published 2011)", "tested_on": "immortalized knock-in murine astrocytes expressing human ApoE4", "assay": "Production (stable isotope labeling kinetics, SILT) of human ApoE4 in immortalized knock-in murine astrocytes", "format": "cell-based", "conditions": "50% 13C6-leucine in media, media collected over 48 hours, n=3; calculated from initial slope and plateau TTR", "procedure": "FIG. 5 presents the production of human ApoE4 in immortalized knock-in murine astrocytes. ApoE4 expressing astrocytes were grown to confluency. ^13C6-Leucine was added to the media at time t=0 bringing the total percent ^13C6-leucine to 50%. Media was collected over 48 hours. ApoE was captured using liposorb, reduced and alkylated, and digested with trypsin. ApoE4 specific peptides were analyzed by nano-LC MS/MS. The SILT method was used to determine the incorporation of ^13C6-leucine into ApoE (n=3, error bars SEM). The fractional synthetic rate (FSR) of ApoE4 was calculated using initial slope and plateau tracer to tracee ratio (TTR) of 8.5% per hour. […]\nApoE was isolated either by overnight incubation with anti-ApoE antibody (WUE4) coupled to CNBr-activated Sepharose beads, or incubation for 30 min (4° C.) with PHM-Liposorb™ (Calbiochem, San Diego, Calif.). […] After desalting using Nu-tip carbon tips (Glygen Corp., Columbia, Md.), the supernatant containing ApoE peptides was analyzed by nano-LC tandem MS (Thermo-Finnigan LTQ equipped with a New Objective nanoflow ESI source) as previously described (Bateman et al., 2006, Nature Medicine, 12:856-861). The samples were quantitated using the stable-isotope tandem labeled (SILT) mass spectroscopy method as described by Bateman et al. 2007 J Am Soc Mass Spectrum 18(6):[…]. […]"}
{"substance": "ApoE4: Human apolipoprotein E isoform ApoE4 (arg112, arg158), endogenous protein whose metabolism is measured", "values": [{"measurement": "fractional synthetic rate (FSR) of ApoE4", "value": 8.5, "unit": "% per hour"}]}
